Like-named read-outs stand apart in the source and are kept apart here.
Biological target: human-thrombin (Homo sapiens, UniProt P00734)
Conditions: Example 2, thrombin 1 pM
Procedure: To yield liposomes with a diameter of ˜100 nm first the required lipids were solved in chloroform and mixed. In total 5 mg 2-Oleoyl-1-palmitoyl-sn-glycero-3-phosphocholine, 0.01 mg, 1,2-dioleoyl-sn-glycero-3-phosphoethanolamine-N-dibenzocyclooctyl and 0.005 mg 1,2-dipalmitoyl-sn-glycero-3-phosphoethanolamine-N-(lissamine rhodamine B sulfonyl) were mixed together. The lipid mixture was vacuum dried overnight. The dried lipids were hydrated in 1 ml HBS (150 mM NaCl, 20 mM/L HEPES at pH7.2) under gentle agitation. The lipid suspension was extruded through a PC-membrane with 100 nm pore size eleven times. Concentration of the liposomes was determined by light absorption at 544 nm and the concentration of the liposome solution was adjusted to 2.5 mg/ml. This equals a liposome concentration of approximately 30 nM.
To immobilize thrombin at the liposomes via click chemistry an azide-group was introduced to thrombin via NHS coupling. Therefore, 100 μL of human-thrombin at 2 mg/ml was mixed with 200 μL high salt PBS-buffer (10 mM Na2HPO4, 1.8 mM KH2PO4, 400 mM NaCl+33.5% Glycerol (v/v) at pH 7.4 and 13 μL NHS-PEG4-Azide at 10 mM. The mixture was incubated for 30 minutes at RT. The reaction was stopped by the addition of 500 μL high salt PBS-buffer (10 mM Na2HPO4, 1.8 mM KH2PO4, 400 mM NaCl+33.5% Glycerol (v/v) at pH 6.6.
1.5 μL of the thrombin-azide were mixed with 48.5 μL icecold CHES-buffer (20 mM CHES, 150 mM NaCl) at pH 8.5 and subsequently 50 μL of the liposome solution is added. This mix was stored for at least 30 minutes on ice. 10 μL of the reaction mix was diluted with 990 μL icecold CHES-buffer (20 mM CHES, 150 mM NaCl) at pH 8.5.
After curing, into each well of the microplate 10 μL of a solution containing 1 mg/ml PLL-g-PEG and 1 mg/ml PLL-g-PEG-biotin are added. The plate was incubated for at least 1 h under gentle orbital agitation. After the incubation each well was washed 10-times with HBS-buffer. The dilution ratio of every washing step was at least 1:10. […]
The single molecule microscope was based on a Nikon Ti-E base. […] Images are recorded via a [sequence] […]

N=C(N)c1ccc(CNC(=O)[C@@H]2CCN2C(=O)[C@H](NCC(=O)O)C2CCCCC2)cc1 [melagatran]
kobs (one hundred wells summed, melagatran 7.4 nM (FIG. 6)): 0.22 s⁻¹
kobs (single well, melagatran 7.4 nM (FIG. 4)): could not be reliably fitted
kobs (two wells summed, melagatran 7.4 nM (FIG. 5)): 0.43 s⁻¹

From patent publication US11346839B2, “Method for determining the interaction between a ligand and a receptor” (INSINGULO AB, priority 2018, dated 2022)
